The text below walks through data of publication PMC11784839, “Monoaminergic neurotransmitters are bimodal effectors of tau aggregation” (Science Advances, 2025).

The target in the test is tau (Homo sapiens, UniProt P10636). As to the kind of experiment: MCE Phenols Library screening, tau biosensor cell seeding assay (AvZ). To be noted: for Z repl 1 / Z Repl 2: Z score; for Z repl 1 / raw data 1: replicate 1; for Z Repl 2 / raw data 2: replicate 2; for AvZ (average z score of seeding, SDs from the mean level of seeding): 10 μM phenol in cell cultures, AD brain homogenate preincubated 16 hours, two biological replicates, positive = catalyzes seeding, negative = inhibits. It counts as cell-based.
tau, sequence (P10636 623-695 limits assumed): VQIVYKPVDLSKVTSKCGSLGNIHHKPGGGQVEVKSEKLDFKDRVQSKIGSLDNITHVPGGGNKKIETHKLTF

Where [1] appears, read: average Z score of two replicates, Phenols Library screen.
[2] abbreviates: average Z score of the two replicates, MCE Phenols Library screen.
Where [3] appears, read: average puncta of the two replicates.
Setting [4] is: average Z score of the two replicates, tau seeding.
[5] abbreviates: average Z score of the two replicates, tau biosensor seeding, MCE Phenols Library screen.

As for `COc1cc(-c2cc(=O)c3c(O)c(OC)c(O)cc3o2)cc(O)c1OC`, the “Z repl 1” value amounted to 0.062 and the “Z Repl 2” value was -0.242. The “av Z” value under setting [1] is on record as -0.09. Under “average of raw data 1 and 2”, this molecule gave an av puncta of 18635. Besides, under “puncta”, the “raw data 1” value was found to be 27088.2 and the “raw data 2” value came to 10181.7.
As for `O=c1c(O[C@@H]2O[C@H](CO)[C@@H](O)[C@H](O)[C@H]2O)c(-c2ccc(O)c(O)c2)oc2cc(O[C@@H]3O[C@H](CO[C@@H]4O[C@H](CO)[C@@H](O)[C@H](O)[C@H]4O)[C@@H](O)[C@H](O)[C@H]3O)cc(O)c12`, the “Z repl 1” value was -0.562 and the “Z Repl 2” value is on record as -0.434. Moreover, the “av Z” value under setting [2] was -0.498. Further, the av puncta under setting [3] is given as 13864.9. For the same molecule, where the note is “puncta”, the “raw data 1” value is reported as 19599.6 and the “raw data 2” value was determined as 8130.05.
With `O=C(O)CC(=O)OC[C@H]1O[C@@H](Oc2c(-c3ccc(O)c(O)c3)oc3cc(O)cc(O)c3c2=O)[C@H](O)[C@@H](O)[C@@H]1O`, the “Z repl 1” value is reported as -0.599 and the “Z Repl 2” value was -0.958. For the same molecule, under setting [2], the “av Z” value is on record as -0.779. This molecule displayed an av puncta (average of raw data 1 and 2) of 10843.5. Under “puncta”, the “raw data 1” value came to 19152.5 and the “raw data 2” value came to 2534.57.
In the case of `COc1cc([C@@H]2OC[C@@H]3[C@H]2CO[C@H]3c2cc(OC)c(O[C@@H]3O[C@H](CO)[C@@H](O)[C@H](O)[C@H]3O[C@@H]3OC[C@](O)(CO)[C@H]3O)c(OC)c2)cc(OC)c1O`, the “Z repl 1” value is 0.189 and the “Z Repl 2” value stood at 0.95. Moreover, the “av Z” value under setting [4] worked out at 0.57. The av puncta (average of raw data 1 and 2) stood at 25767.5. For the setting “puncta”, the “raw data 1” value was found to be 28623.9 and the “raw data 2” value was determined as 22911.
In the case of `OC[C@H]1O[C@@H](Oc2cc(O)cc(/C=C/c3ccc(O)cc3)c2)[C@H](O)[C@@H](O)[C@@H]1O` (mixture of isomers) [(E/Z)-Polydatin], the “Z repl 1” value came to 0.505 and the “Z Repl 2” value is reported as -0.119. In addition, the “av Z” value under setting [4] is 0.193. Moreover, the av puncta (average of raw data 1 and 2) was 21956.3. Besides, for the setting “puncta”, the “raw data 1” value stood at 32412.5 and the “raw data 2” value is listed as 11500.1.
In the case of `CCC1(O)C(=O)OCc2c1cc1n(c2=O)Cc2cc3cc(O)ccc3nc2-1` (racemic) [(±)-10-Hydroxycamptothecin], the “Z repl 1” value was determined as 2.809 and the “Z Repl 2” value is recorded as 1.992. Further, under setting [5], the “av Z” value came to 2.4. The av puncta (average of raw data 1 and 2) is 47054. Besides, where the note is “puncta”, the “raw data 1” value came to 60066.9 and the “raw data 2” value stood at 34041.
For the molecule `Cl.NCC(O)c1ccc(O)c(O)c1` (racemic) [DL-Norepinephrine (hydrochloride)], the av puncta (average of raw data 1 and 2) is given as 22344.8. In addition, under “puncta”, the “raw data 1” value worked out at 29267.2 and the “raw data 2” value is given as 15422.3.
With `Cc1c(C)c2c(c(C)c1O)CCC(C)(CCCC(C)CCCC(C)CCCC(C)C)O2` (racemic) [DL-alpha-Tocopherol], the “Z repl 1” value is recorded as -0.849 and the “Z Repl 2” value is recorded as -0.142. The “av Z” value under setting [2] is on record as -0.496. The molecule further showed an av puncta under setting [3] of 13701.5. Under “puncta”, the “raw data 1” value is 16151.3 and the “raw data 2” value was found to be 11251.7.
In the case of `COc1cc(/C=C/C(=O)O[C@H]2C[C@@](O)(C(=O)O)C[C@H](O)[C@@H]2O)ccc1O` (stereo in doubt) [3-Feruloylquinic acid], the “Z repl 1” value was 0.043 and the “Z Repl 2” value is recorded as -0.387. Further, under setting [1], the “av Z” value is recorded as -0.172. Under “average of raw data 1 and 2”, this molecule registered an av puncta of 17749.2. Also, for the setting “puncta”, the “raw data 1” value is listed as 26861 and the “raw data 2” value was found to be 8637.46.
In the case of `O=C(O[C@H](Cc1ccc(O)c(O)c1)C(=O)O)C1=Cc2cc(O)c(O)cc2[C@H](c2ccc(O)c(O)c2)[C@H]1C(=O)OC(Cc1ccc(O)c(O)c1)C(=O)O` (stereo in doubt) [Rabdosiin], the “Z repl 1” value is -0.457 and the “Z Repl 2” value is reported as -0.234. The “av Z” value under setting [2] is -0.346. Under setting [3], this molecule registered an av puncta of 15561.2. Under “raw puncta”, the “raw data 1” value was 20858.2 and the “raw data 2” value was 10264.2.
In the case of `CC=C1[C@H](O[C@@H]2O[C@H](CO)[C@@H](O)[C@H](O)[C@H]2O)OC=C(C(=O)OC)[C@H]1CC(=O)OC[C@H]1O[C@@H](OCCc2ccc(O)cc2)[C@H](O)[C@@H](O)[C@@H]1O` (stereo in doubt) [Specneuzhenide], the “Z repl 1” value is reported as -0.904 and the “Z Repl 2” value was determined as 0.064. Moreover, the “av Z” value under setting [2] was -0.42. In addition, the av puncta under setting [3] is given as 14474.2. In addition, under “raw puncta”, the “raw data 1” value was 15493.9 and the “raw data 2” value amounted to 13454.5.
For the molecule `O=C(OC[C@H]1OC(OC(=O)c2cc(O)c(O)c(O)c2)[C@H](OC(=O)c2cc(O)c(O)c(O)c2)[C@@H](OC(=O)c2cc(O)c(O)c(O)c2)[C@@H]1O)c1cc(O)c(O)c(O)c1` (stereo partly drawn) [1,2,3,6-Tetragalloylglucose], the “Z repl 1” value is reported as -1.751 and the “Z Repl 2” value is reported as -1.021. Under setting [2], the “av Z” value was -1.386. The molecule also returned an av puncta (average of raw data 1 and 2) of 3594.24. Moreover, under “puncta”, the “raw data 1” value was 5324.12 and the “raw data 2” value is recorded as 1864.38.
Take `Oc1ccc(O)c(O)c1` [1,2,4-Trihydroxybenzene]: the “AvZ (average z score of seeding, SDs from the mean level of seeding)” value (shortened to “AvZ”) is listed as -1.385; the “Z repl 1” value is on record as -1.617; the “Z Repl 2” value is -1.152. This molecule also gave an av puncta (average of raw data 1 and 2) of 3698. Where the note is “puncta”, the “raw data 1” value turned out to be 6931.48 and the “raw data 2” value is 464.513.
On to `O=C(C=Cc1ccc(O)c(O)c1)OC1CC(OC(=O)C=Cc2ccc(O)c(O)c2)(C(=O)O)CC(O)C1O` (stereo not drawn) [1,3-Dicaffeoylquinic acid], for which the “Z repl 1” value was -1.077 and the “Z Repl 2” value was -0.588. For the same molecule, the “av Z” value under setting [2] is recorded as -0.832. Where the note is “average of raw data 1 and 2”, this molecule showed an av puncta of 9954.06. Besides, for the setting “puncta”, the “raw data 1” value is given as 13417.7 and the “raw data 2” value is on record as 6490.43.
In the case of `Oc1cccc2ccccc12` [1-Naphthol], the “Z repl 1” value amounted to 1.606 and the “Z Repl 2” value stood at 0.927. Besides, under setting [5], the “av Z” value was 1.267. Under “average of raw data 1 and 2”, this molecule had an av puncta of 34150.6. For the same molecule, where the note is “puncta”, the “raw data 1” value was 45632.1 and the “raw data 2” value amounted to 22669.1.
For the molecule `O=C(O[C@H]1[C@H](Oc2c(-c3ccc(O)c(O)c3)oc3cc(O)cc(O)c3c2=O)O[C@H](CO)[C@H](O)[C@@H]1O)c1cc(O)c(O)c(O)c1` [2""-O-Galloylhyperin], the “Z repl 1” value is -0.93 and the “Z Repl 2” value is -0.817. In addition, under setting [2], the “av Z” value was -0.873. The molecule also came in with an av puncta (average of raw data 1 and 2) of 9615.07. For the same molecule, where the note is “puncta”, the “raw data 1” value came to 15187.3 and the “raw data 2” value amounted to 4042.85.
For the molecule `CC(=O)c1ccc(C)cc1O` [2'-Hydroxy-4'-methylacetophenone], the “AvZ” value is recorded as -0.002; the “Z repl 1” value is 0.483; the “Z Repl 2” value is listed as -0.487. The molecule further showed an av puncta (average of raw data 1 and 2) of 19854.9. For the same molecule, where the note is “puncta”, the “raw data 1” value is listed as 32144.5 and the “raw data 2” value stood at 7565.33.
For the molecule `O=C(O)c1ccc(O)c(O)c1O` [2,3,4-Trihydroxybenzoic acid], the “AvZ” value is -0.363; the “Z repl 1” value was -0.335; the “Z Repl 2” value was -0.39. Under setting [3], this molecule came in with an av puncta of 15461.1. For the same molecule, where the note is “raw puncta”, the “raw data 1” value is reported as 22324.8 and the “raw data 2” value is given as 8597.33.
`COc1ccc(C(C)=O)c(O)c1O` [2,3-Dihydroxy-4-methoxyacetophenone]: the “AvZ” value amounted to 0.13; the “Z repl 1” value amounted to 0.385; the “Z Repl 2” value was -0.124. Further, the av puncta (average of raw data 1 and 2) was 21205.2. For the setting “puncta”, the “raw data 1” value turned out to be 30969.9 and the “raw data 2” value is given as 11440.6.
Regarding `O=C(O)c1ccc(O)cc1O` [2,4-Dihydroxybenzoic acid], the “AvZ” value amounted to 0.126; the “Z repl 1” value is given as 0.635; the “Z Repl 2” value was -0.383. This molecule gave an av puncta (average of raw data 1 and 2) of 21320.5. For the same molecule, under “puncta”, the “raw data 1” value was found to be 33969.7 and the “raw data 2” value was found to be 8671.41.
In the case of `CC(=O)c1cc(O)ccc1O` [2,5-Dihydroxyacetophenone], the “AvZ” value was -0.464; the “Z repl 1” value is on record as -0.264; the “Z Repl 2” value is on record as -0.663. Under setting [3], this molecule showed an av puncta of 14429.3. For the same molecule, for the setting “puncta”, the “raw data 1” value came to 23175.8 and the “raw data 2” value is recorded as 5682.84.
As for `Oc1c(Br)cccc1Br` [2,6-Dibromophenol], the “AvZ” value is listed as -0.18; the “Z repl 1” value is on record as -0.611; the “Z Repl 2” value worked out at 0.25. Moreover, the av puncta (average of raw data 1 and 2) stood at 17229.5. For the same molecule, under “puncta”, the “raw data 1” value amounted to 19019.6 and the “raw data 2” value was 15439.4.
`O=C(O)c1c(O)cccc1O` [2,6-Dihydroxybenzoic acid]: the “AvZ” value is on record as 0.715; the “Z repl 1” value is listed as 0.475; the “Z Repl 2” value is given as 0.955. Besides, the av puncta (average of raw data 1 and 2) is 27508.9. For the same molecule, where the note is “puncta”, the “raw data 1” value turned out to be 32047.3 and the “raw data 2” value was found to be 22970.5.
For `Cc1cc(O)cc(C)c1O` [2,6-Dimethylhydroquinone], the “AvZ” value worked out at 0.003; the “Z repl 1” value is 0.44; the “Z Repl 2” value was -0.434. Further, the av puncta (average of raw data 1 and 2) was determined as 19881.8. Further, where the note is “puncta”, the “raw data 1” value is on record as 31637.3 and the “raw data 2” value is on record as 8126.32.
Take `CCc1cccc(C)c1O` [2-Ethyl-6-methylphenol]: the “AvZ” value is reported as 0.167; the “Z repl 1” value is 0.346; the “Z Repl 2” value was -0.011. In addition, the av puncta (average of raw data 1 and 2) turned out to be 21574.5. Besides, under “puncta”, the “raw data 1” value is reported as 30502.1 and the “raw data 2” value is reported as 12646.9.
